Laboratory results taken from PMC2751816, “Functional, Non-Clonal IgM^a-Restricted B Cell Receptor Interactions with the HIV-1 Envelope gp41 Membrane Proximal External Region” (PLoS ONE, 2009).
Entries after “also recorded” stand apart in the source; their conditions may differ.

What was measured:
[1] = test system: naïve splenic BALB/c B cells; assay: Flow cytometry: APC-labeled tetramer staining of BALB/c splenic B cells; assay type: cell-based, mouse (BALB/c)
Experimental: N-biotinylated, linker/spacer-containing peptides used to make tetramers are detailed in Table S4 and Fig. 7A. Peptides were synthesized and purified using reverse-phase HPLC (Primm Biotechnology). To produce tetramerized forms of each peptides, 200 µM peptide and 6 µM APC-labeled streptavadin (SA) were combined at equal volumes, and mixtures were incubated at 4°C for 4 h. Unbound peptide was removed from peptide-APC complexes by centrifugal filtration using an Amicon Centriprep YM30 column (Millipore Corporation). Purified tetramer preparations were determined using the Micro BSA protein assay kit (Pierce Biotechnology).
(§1) FACS staining of single cell suspensions (≥2×10^6) was conducted using pre-mixed combinations of fluorochrome-labeled Abs and APC-conjugated B cell tetramers at empirically-determined optimal concentrations. All Abs were from BD unless otherwise stated. Primary antibodies used were: PerCP anti-B220, FITC anti-IgD, FITC, PE or PE-Cy7 anti-IgM, PE anti-CD5, FITC anti-CD11b, PE-Cy7 anti-CD19, FITC anti-CD21, PE-Cy7 anti-CD23 (eBiosciences), and PE-Cy7 anti-CD93 (eBiosciences). Other reagents included biotinylated Abs against dump channel markers: Thy1 (Abcam), F4/80 (Abcam), CD11c, Gr-1, TER-119, and NK-1.1, secondary staining SA-Texas Red conjugate; v-amine live/dead violet dye (Molecular Probes), and Fc block (anti-CD16/32).
(§2) Staining was conducted at 4°C in several sequential steps in FACS staining buffer (1X PBS with 2% FCS, 0.1% NaN3), washing twice between steps. Cells were first incubated with v-amine live/dead dye for 15 min, then stained with APC-labeled tetramers for 30 min (and in some experiments, cold tetramer was incubated at 10 fold molar excess for 1 h, prior to staining with APC-labeled tetramers). Cells were then stained with Fc block, followed by incubation with combinations of primary Abs, and secondary staining with SA-Texas Red, each for 30 min. Data (≥2.5×10^5 events/sample) were acquired using an LSRII flow cytometer and Cell Quest software (BD Immunocytometry systems). FACS Analysis was performed using FlowJo software (Tree Star). For analysis, cells were gated in the following order: single cells were gated based on fsc height vs. fsc area+ssc height vs. ssc profiles, lymphocytes were gated on fsc and ssc profile, residual dead cells were excluded by negative gating with v-amine live/dead dye, and irrelevant non-B cells were excluded by negative gating with dump markers.

[2] = test system: BALB/c B cells (gp41 MPER tetramer binding); assay: Cold inhibition of APC-labeled gp41 MPER tetramer binding by unlabeled tetramers; assay type: cell-based, mouse (BALB/c)
Experimental: as §1, §2

[3] = test system: expressed IgM^+ VH repertoire of splenic BALB/c B cells; assay: VH family usage in gp41 MPER tetramer-sorted IgM^+ B cells (5' RACE); set-up: species or system mouse (BALB/c); conditions: compared to total IgM^+ BALB/c B cells; Fisher Exact test; two sorts; Fig. 6B
Source text: For sorting of gp41 MPER tetramer-binding B cells, single cell splenic suspensions were obtained from 5–10 naïve BALB/c 8 wk females, pooled, and purified by negative depletion with CD43 MACS beads (Miltenyi Biotechnology). The resulting B cell enriched fraction was stained as described in the flow cytometry methods section and sorted into B220^+ CD19^+ gp41 MPER^+ fractions using a BDFACS Aria. Sorting gates for the gp41 MPER^+ fractions were set to include all events greater than baseline staining without tetramer. Purity of sorted populations was verified by a 1000-event post-sort step.
For 5′ RACE analysis, gp41 MPER^+ fractions (or purified, unsorted splenic B cells) were spun down and washed, immediately after sorting. DNAse-free RNA was extracted and concentrated using RNEasy Mini and Micro kits, respectively (Qiagen) and quantitated using a NanoDrop ND-1000 spectrophotometer (Fisher). cDNA was synthesized by oligo-dT priming using SuperScript III (Invitrogen) and IgM-specific 5′ RACE products were amplified with the First Choice RLM-RACE PCR kit (Ambion), using mouse HC̃-specific primers in combination with 5′ RACE primers, according to the manufacturer's instructions. PCR products were cloned into pGEM-T Easy vectors (Promega), transformed in GC5 competent cells (CLP), and transformant DNA was isolated, sequenced and analyzed in Ig Blast.

[4] = test system: phosphorylated Erk in BALB/c splenic B cells; assay: Intracellular FACS of phosphorylated Erk1/2; assay type: cell-based, mouse (BALB/c); conditions: naïve BALB/c splenocytes; gated on ligated B cells; Fig. 8B
Experimental: Splenocyte suspensions were incubated at 37°C for various times with either APC-labeled F(ab)'2 anti-IgM (Jackson ImmunoResearch) or APC-labeled gp41 MPER tetramers. Stimulations were stopped by the addition of PhosFlow Lyse/Fix buffer (BD) and incubation for 10 min at 37°C. Cells were stained with B220-FITC prior to permeabilization with PhosFlow Perm Buffer III (BD). Permeabilized cells were stained with a PE-labeled Ab to Erk1 and Erk2 (BD), according to the manufacturer's instructions. Cells were fixed with 2% paraformaldehyde, and all data were collected and analyzed as done for standard flow cytometry.

MZ and B1 B cells = conditions: gp41 MPER-immunized BALB/c mice; ref L. Verkoczy and B. Haynes, unpublished results; cited from earlier work
Source text: Classical B-cell sAgs, like the S. aureus protein A subunit (SpA), can bind to and activate large populations of B cells, may cause selective deletion of MZ and B1 B cell subsets, and bind to B cells based on VH family usage, [52]. Similarly, sAg interactions of HIV-1 gp120 with human B cells have been described (reviewed in [37] and [53]–[56]), resulting in a VH3-skewed repertoire in HIV-1 infected individuals (reviewed in [57] and [58]–[60]). […] In this context, one obvious question arising from our studies is what are the physiological consequences of weak and/or incomplete signaling by gp41 MPER (Fig. 8). One possibility is that incomplete activation of B cells by low affinity MPER binding could suppress the T-independent component of MPER Ab respon ...

Q: Which “MFI binding pattern (in words)” value ([1]; BALB/c B cell subsets, Fig. 1A, 2A, Table S1) does the source give for “QQEKNEQELLELDKWASLWN [gp41 MPER tetramer, (residues 659–678 of the HIV-1 envelope)]” here?
A: the majority of MPER-reactive B cells within BALB/c subsets shifted as “low avidity” shoulders, with an additional, small fraction binding as a “higher-avidity” MFI tail

Q: And the “gp41 MPER reactivity among B cell subsets (in words)” value ([1]; BALB/c splenic and peritoneal subsets, MFI and frequency, Fig. 2, Tables S1, S2)?
A: gp41 MPER reactivity was strongest in marginal zone (MZ) and peritoneal B1 B cell subsets of BALB/c mice; also recorded: exhibited lower levels of gp41 MPER binding

Q: What about the “fraction of all B cells labeled at saturating tetramer” value ([1]; BALB/c splenocytes, 10 µg/10^6 splenocytes, Fig. 1B) of the same sequence?
A: ~25%

Q: What about the “tetramer amount giving saturating binding” value ([1]; BALB/c splenocytes, Fig. 1B) of the same sequence?
A: 10 µg/10^6 splenocytes

Q: And the “tetramer amount with highest gp41 MPER/scrambled gp41 MPER binding ratio” value ([1]; BALB/c splenocytes, sub-saturating, Fig. 1B)?
A: 100 ng/10^6 splenocytes

Q: What about the “frequency of binding to BALB/c B cells” value ([1]; high-frequency binding, 100 ng tetramer/10^6 cells) of the same sequence?
A: ≥ 5%

Q: And the “gp41 MPER binding over wide tetramer concentration range (in words)” value ([1]; serial dilutions, MFI and fraction of labeled B cells, Fig. 1B)?
A: Elevated gp41 MPER binding to BALB/c cells, relative to C57BL/6 B cells, was observed at all concentrations of tetramers carrying MPER peptide; also recorded: substantially elevated relative to the scrambled peptide controls

Q: And the “percentage of tetramer-reactive B cells” value ([1]; total splenic B cells (CD19^+), naïve BALB/c, APC tetramer 100 ng/10^6 splenocytes, above background without tetramer, Fig. 1A representative histogram)?
A: ~7%

Q: And the “inhibition of APC-labeled gp41 MPER tetramer binding” value ([2]; pre-incubation with unlabeled competitor at 10-fold molar excess, 100 ng/10^6 splenocytes)?
A: > 90%

Q: And the “inhibition of APC-labeled gp41 MPER tetramer binding (in words)” value ([2]; unlabeled competitor tetramer pre-incubated, Fig. 4A,B, average of three experiments (4B))?
A: Dose-dependent inhibition of APC-labeled gp41 MPER peptide binding was observed

Q: And the “VH family usage in gp41 MPER-reactive B cells (in words)” value [3]?
A: most VH families were utilized at statistically comparable levels in gp41 MPER-reactive B cells, with the exception of two overutilized VH families: 36–60 and 7183

Q: What about the “Erk phosphorylation (in words)” value [4] of the same sequence?
A: detectable, but dampened induction of phosphorylated Erk; also recorded: peak gp41 MPER-induced Erk phosphorylation persisted at 30 min; also recorded: the entire population of gp41 MPER-gated B cells showed modest Erk activation

Q: What about the “B cell subset deletion after immunization (in words)” value (MZ and B1 B cells) of the same sequence?
A: partial deletion of MZ and B1 B cells in gp41 MPER-immunized BALB/c mice; also recorded: reduced MZ B cell populations in gp41 MPER-immunized BALB/c mice
